In US20260274814A1, “THIENYL COMPOUNDS FOR THE TREATMENT OF A CENTRAL NERVOUS SYSTEM DISEASE OR DISORDER” (Coreterra Therapeutics, Inc., priority 2023, published 2026):
Counter-ions that a name gives are not always drawn. Like-named read-outs stand apart in the source and are kept apart here.

Test system: mice
Test: Neuropharmacological Assay (SmartCube): automated behavioral signature of compound-treated mice compared with a database of reference drug classes
Type: in vivo
Conditions: for minimal effective dose: Mus musculus, ip; for minimal effective dose / MED (minimal effective dose) / MED: i.p., that dose is shown
In short: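 Probabilities of matching each neuropharmacological class (e.g. anxiolytic, antidepressant) come from algorithmic analysis of digitally recorded behaviour, reported for 3.0 mg/kg. Compounds were given intraperitoneally in a Pharmasolve/PEG/propylene glycol vehicle 15 min pre-test. Minimal effective dose is the lowest dose reaching 45% or more total activity.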

[1] = dose having 45% or more total activity in SmartCube, if only one dose was tested, read-out: MED (minimal effective dose)
[2] = probability that activity matches this class of agents, 3.0 mg/kg i.p., 15 min before test
[3] = minimal effective dose: dose having 45% or more total activity in SmartCube, if only one dose tested, read-out: MED
[4] = SmartCube class probability, 3.0 mg/kg i.p., 15 min before test
[5] = SmartCube class probability, 3.0 mg/kg i.p., 15 min before test, hydrochloride, 3 mg/kg
[6] = dose having 45% or more total activity in SmartCube, if only one dose was tested, hydrochloride
[7] = probability that activity matches this class of agents, 3.0 mg/kg i.p., 15 min before test, hydrochloride, 3 mg/kg
[8] = SmartCube probability class, 3.0 mg/kg dose, i.p. 15 min before the behavioral test
[9] = minimal effective dose: dose having 45% or more total activity in SmartCube, if only one dose tested, hydrochloride

SMILES | AG [2] | AN [2] | AP [2] | CE [2] | HL [2] | MS [2] | PS [2] | SH [2] | UK [2] | minimal effective dose [3] [mg/kg] | AD [4] | AG [4] | AN [4] | AX [4] | CE [4] | HL [4] | MS [4] | PS [4] | SH [4] | UK [5] | further results
CNC1CCc2c(sc(C(F)(F)F)c2C)C1 (stereo not drawn) [Compound 91, N, 3-dimethyl-2-(trifluoromethyl)-4,5,6,7-tetrahydrobenzothiophen-6-amine hydrochloride] | ND (^ <4%) | ND (^ <4%) | ND (^ <4%) | ND (^ <4%) | ND (^ <4%) | ND (^ <4%) | ND (^ <4%) | ND (^ <4%) | ++ (≥24%) | – | – | – | – | – | – | – | – | – | – | – | minimal effective dose [1]: > 3 mg/kg; AD [2]: ND (^ <4%); AX [2]: ND (^ <4%)
CNC1CCc2c(F)sc(C)c2C1 (single isomer, unassigned) [Compound 210, 1-fluoro-N, 3-dimethyl-4,5,6,7-tetrahydro-2-benzothiophen-5-amine hydrochloride] | – | – | – | – | – | – | – | – | – | 3 | ND (^ <4%) | ND (^ <4%) | ND (^ <4%) | ND (^ <4%) | ND (^ <4%) | ND (^ <4%) | ND (^ <4%) | ND (^ <4%) | ND (^ <4%) | +++ (≥49%) | AP [5]: + (≥4%)
CNC1CCc2cc(C)sc2C1 (single isomer, unassigned) [Compound 28, N, 2-dimethyl-4,5,6,7-tetrahydrobenzothiophen-6-amine hydrochloride] | ND (^ <4%) | ND (^ <4%) | – | ND (^ <4%) | ND (^ <4%) | ND (^ <4%) | ND (^ <4%) | ND (^ <4%) | – | – | – | – | – | – | – | – | – | – | – | – | MED (minimal effective dose) [6]: 3.0 mpk; AX [2]: ++ (≥24%); AD [7]: +++ (≥49%); AP [7]: ND (^ <4%); UK [7]: ND (^ <4%)
CNC1COc2c(C)csc2C1 (single isomer, unassigned) [Compound 297, N, 3-dimethyl-6,7-dihydro-5H-thieno[3,2-b]pyran-6-amine hydrochloride] | – | – | – | – | – | – | – | – | – | – | – | – | – | – | – | – | – | – | – | – | minimal effective dose (minimal effective dose: dose having 45% or more total activity in SmartCube, if only one dose was tested, read-out: MED): 3 mg/kg; AD [8]: ND (^ <4%); AG [8]: ND (^ <4%); AN [8]: ND (^ <4%); AP [8]: ND (^ <4%); CE [8]: ND (^ <4%); HL [8]: ND (^ <4%); MS [8]: ND (^ <4%); PS [8]: ND (^ <4%); SH [8]: ND (^ <4%); UK [8]: ND (^ <4%); AX (SmartCube probability class, 3.0 mg/kg dose, i.p. 15 min before the behavioral test, hydrochloride, 3 mg/kg): ND (^ <4%)
Cc1sc(F)c2c1CC(N)CC2 (stereo not drawn) [Compound 203, 1-fluoro-3-methyl-4,5,6,7-tetrahydro-2-benzothiophen-5-amine hydrochloride] | – | – | – | – | – | – | – | – | – | 3 | ND (^ <4%) | ND (^ <4%) | ND (^ <4%) | ND (^ <4%) | ND (^ <4%) | ND (^ <4%) | ND (^ <4%) | ND (^ <4%) | ND (^ <4%) | – | AP [4]: ND (^ <4%); UK [4]: +++ (≥49%)
c1scc2c1CCC(NC1CCC1)C2 (single isomer, unassigned) [Compound 160, N-cyclobutyl-4,5,6,7-tetrahydro-2-benzothiophen-5-amine hydrochloride] | – | – | – | – | – | – | – | – | – | > 3 | ND (^ <4%) | ND (^ <4%) | ND (^ <4%) | ND (^ <4%) | ND (^ <4%) | ND (^ <4%) | ND (^ <4%) | ND (^ <4%) | ND (^ <4%) | + (≥4%) | AP [4]: ND (^ <4%)
c1scc2c1CCC(NC1COC1)C2 (single isomer, unassigned) [Compound 128, N-(4,5,6,7-tetrahydro-2-benzothiophen-5-yl)oxetan-3-amine] | ND (^ <4%) | ND (^ <4%) | ND (^ <4%) | ND (^ <4%) | ND (^ <4%) | ND (^ <4%) | ND (^ <4%) | ND (^ <4%) | + (≥4%) | – | – | – | – | – | – | – | – | – | – | – | minimal effective dose [1]: 10 mg/kg; AD [2]: ND (^ <4%); AX [2]: ND (^ <4%)
CNC1Cc2ccsc2C1.Cl (single isomer, unassigned) [Compound 20, N-methyl-5,6-dihydro-4H-cyclopenta[b]thiophen-5-amine hydrochloride] | ND (^ <4%) | ND (^ <4%) | + (≥4%) | – | ND (^ <4%) | ND (^ <4%) | ND (^ <4%) | ND (^ <4%) | – | – | – | – | – | – | – | – | – | – | – | – | MED (minimal effective dose) [6]: 1.0 mpk; AD [7]: ++++ (≥74%); AX [7]: + (≥4%); CE [7]: + (≥4%); UK [7]: ND (^ <4%)
CNC1CCc2scc(C(F)(F)F)c2C1.Cl (single isomer, unassigned) [Compound 195, N-methyl-3-(trifluoromethyl)-4,5,6,7-tetrahydrobenzothiophen-5-amine hydrochloride] | – | – | – | – | – | – | – | – | – | – | ND (^ <4%) | ND (^ <4%) | ND (^ <4%) | ND (^ <4%) | ND (^ <4%) | ND (^ <4%) | ND (^ <4%) | ND (^ <4%) | ND (^ <4%) | + (≥4%) | AP [5]: ND (^ <4%); MED [9]: >3 mpk
CNC1CCc2sc(C)cc2C1 (single isomer, unassigned) [Compound 224, N, 2-dimethyl-4,5,6,7-tetrahydrobenzothiophen-5-amine hydrochloride] | – | – | – | – | – | – | – | – | – | – | ND (^ <4%) | ND (^ <4%) | ND (^ <4%) | ND (^ <4%) | ND (^ <4%) | ND (^ <4%) | ND (^ <4%) | ND (^ <4%) | ND (^ <4%) | ND (^ <4%) | AP [5]: ++++ (≥74%); MED [9]: 3 mpk
CNC1CCc2csc(C)c2C1.Cl (single isomer, unassigned) [Compound 40, N, 3-dimethyl-4,5,6,7-tetrahydro-2-benzothiophen-5-amine hydrochloride] | ND (^ <4%) | ND (^ <4%) | ++ (≥24%) | ND (^ <4%) | ND (^ <4%) | ND (^ <4%) | ND (^ <4%) | ND (^ <4%) | ND (^ <4%) | – | – | – | – | – | – | – | – | – | – | – | minimal effective dose [1]: 1 mg/kg; AD [7]: ND (^ <4%); AX [7]: +++ (≥49%)
c1scc2c1CCC(NC1COC1)C2 (single isomer, unassigned) [Compound 129, N-(4,5,6,7-tetrahydro-2-benzothiophen-5-yl)oxetan-3-amine] | – | – | – | – | – | – | – | – | + (≥4%) | – | – | – | – | – | – | – | – | – | – | – | MED (minimal effective dose) (dose having 45% or more total activity in SmartCube, if only one dose was tested): 10 mpk; AD [2]: ND (^ <4%)
CNC1CCc2cc(Cl)sc2C1 (single isomer, unassigned) [Compound 145, 2-chloro-N-methyl-4,5,6,7-tetrahydrobenzothiophen-6-amine hydrochloride] | – | – | – | – | – | – | – | – | – | 3 | – | ND (^ <4%) | ND (^ <4%) | ND (^ <4%) | ND (^ <4%) | ND (^ <4%) | ND (^ <4%) | ND (^ <4%) | ND (^ <4%) | ND (^ <4%) | AP [4]: ND (^ <4%); AD [5]: ++++ (≥74%)
